Measurements as given in patent publication US8518989B2, “Prodrugs of short-chain fatty acids and treatment methods” (Georgia Health Sciences University Research Institute, Inc., priority 2005, dated 2013).
Where two headings read alike, the source gives them in different places.

What was measured:
rat ATB^0,+ [1] = target: T1, rat ATB^0,+ (Rattus norvegicus, UniProt Q334I2); test: Inhibition of ATB0,+-mediated 3H-glycine uptake in HRPE cells expressing cloned rat ATB0,+; format: cell-based; conditions: for Inhibition of ATB0,+-mediated glycine transport (in words): 5 mM
T1 sequence (Q334I2 1-640): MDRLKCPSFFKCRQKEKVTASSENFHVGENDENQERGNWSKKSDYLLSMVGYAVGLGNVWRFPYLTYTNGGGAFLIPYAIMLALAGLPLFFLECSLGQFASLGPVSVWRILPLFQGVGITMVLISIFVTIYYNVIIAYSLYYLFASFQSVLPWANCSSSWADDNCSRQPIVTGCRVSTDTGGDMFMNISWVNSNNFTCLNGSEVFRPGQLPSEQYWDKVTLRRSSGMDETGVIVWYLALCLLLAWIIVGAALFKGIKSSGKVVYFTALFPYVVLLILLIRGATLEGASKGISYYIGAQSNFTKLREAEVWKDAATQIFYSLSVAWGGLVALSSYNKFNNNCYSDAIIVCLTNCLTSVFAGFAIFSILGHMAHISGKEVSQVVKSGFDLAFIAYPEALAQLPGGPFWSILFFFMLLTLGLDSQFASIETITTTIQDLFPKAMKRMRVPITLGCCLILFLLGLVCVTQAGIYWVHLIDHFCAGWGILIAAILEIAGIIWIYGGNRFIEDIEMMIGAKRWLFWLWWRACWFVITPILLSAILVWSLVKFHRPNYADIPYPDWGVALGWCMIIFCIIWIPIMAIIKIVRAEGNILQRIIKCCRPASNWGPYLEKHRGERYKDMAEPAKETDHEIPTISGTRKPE

rat ATB^0,+ [2] = target: T1, rat ATB^0,+; test: Substrate-induced inward currents in Xenopus oocytes expressing rat ATB0,+ (voltage clamp); format: cell-based; conditions: for Inward currents induced in ATB0,+-expressing oocytes (in words): 5 mM
Description: Experiments with HRPE cells were repeated at least three times with three independent transfections and transport measurements made in duplicate in each experiment. Electrophysiological measurements of substrate-induced currents were repeated at least three times with separate oocytes. The data are presented as means±S.E.M. of these replicates. The kinetic parameters, Michaelis constant (Kt) and maximal velocity (Vmax) were calculated by fitting the ATB^0,+-specific transport data to the Michaelis-Menten equation describing a single saturable transport system. Na^+ and Cl^−-activation kinetics were analyzed by fitting the ATB^0,+-specific transport data to the Hill equation for the determination of K0.5 values for Na^+ and Cl^− (concentration of Na^+ and Cl^− necessary for half-maximal activation) and the Hill coefficient (nH; the number of Na^+ or Cl^− ions involved in the activation process). The kinetics parameters were first determined by non-linear regression methods and subsequently confirmed by linear regression methods using the commercially-available computer program SigmaPlot, version 6.0 (SPSS Inc., Chicago, Ill., US).
Therefore, it was necessary to determine whether or not the α-carboxyl esters of neutral amino acids are transportable substrates for ATB^0,+. For this purpose, we used the X. laevis oocyte expression system. Cloned rat ATB^0,+ was functionally expressed in oocytes by injection of corresponding cRNA, and the transport of substrates via the transporter was monitored by inward currents when the oocytes were exposed to putative substrates under voltage-clamp conditions.

human SLC5A8 [3] = target: T2, human SLC5A8 (Homo sapiens, UniProt Q8N695, F251V/V193I); test: Two-microelectrode voltage clamp of substrate-induced currents in SLC5A8-expressing oocytes; format: cell-based; conditions: for Relative magnitude of substrate-induced currents: 5 mM, -50 mV
T2 construct: We amplified the coding region of SLC5A8 mRNA by RT-PCR using human intestinal mRNA as the template; expressed in transfected cells; host or cells: Xenopus laevis oocytes, 50 ng capped cRNA from the pGH19 construct
T2 sequence (Q8N695 1-610 V193I/F251V): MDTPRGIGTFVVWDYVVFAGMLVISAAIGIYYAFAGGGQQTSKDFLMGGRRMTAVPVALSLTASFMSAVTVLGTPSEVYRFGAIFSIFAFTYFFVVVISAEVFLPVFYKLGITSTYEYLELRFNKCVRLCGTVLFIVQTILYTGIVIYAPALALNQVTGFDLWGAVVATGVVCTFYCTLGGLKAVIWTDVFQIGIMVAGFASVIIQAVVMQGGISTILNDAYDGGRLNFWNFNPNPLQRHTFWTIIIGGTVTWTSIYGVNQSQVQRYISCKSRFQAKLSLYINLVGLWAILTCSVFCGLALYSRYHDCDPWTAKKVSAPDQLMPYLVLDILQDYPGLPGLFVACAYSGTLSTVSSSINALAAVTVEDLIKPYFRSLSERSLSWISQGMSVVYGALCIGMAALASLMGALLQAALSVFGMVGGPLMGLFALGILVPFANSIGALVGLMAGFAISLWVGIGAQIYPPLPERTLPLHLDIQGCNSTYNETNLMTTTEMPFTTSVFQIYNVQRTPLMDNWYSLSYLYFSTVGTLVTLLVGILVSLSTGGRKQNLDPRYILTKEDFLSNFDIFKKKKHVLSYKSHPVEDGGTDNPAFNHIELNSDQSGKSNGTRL
Description: (§1) The amplified human SLC5A8 cDNA was expressed heterologously in Xenopus oocytes by cRNA injection. Capped cRNA from SLC5A8 cDNA was synthesized using the mMESSAGE mMACHINE kit (Ambion Inc., Austin, Tex.). Mature oocytes (stage 1V or V) from Xenopus laevis were injected with 50 ng cRNA. Uninjected oocytes served as controls. The oocytes were used for uptake and electrophysiological studies 3-6 days after cRNA injection. Uptake of radiolabeled substrates in uninjected and cRNA-injected oocytes was determined as described previously (Fei, Y. J., et al., (1995) Biochemistry 34, 8744-8751).
(§2) Eight oocytes were used for each uptake measurement. Electrophysiological studies were performed by the two-microelectrode voltage clamp method (11. Wang, H., Fei, et al., (2000) Am. J. Physiol. 278:C1019-C1030; Inoue, K, et al. (2004) Biochem. J. 378:949-957).
Oocytes were perfused with a NaCl-containing buffer (100 mM NaCl, 2 mM KCl, 1 mM MgCl2, 1 mM CaCl2, 3 mM Hepes, 3 mM Mes, and 3 mM Tris, pH 7.5), followed by the same buffer containing different fatty acids. The membrane potential was clamped at −50 mV. The differences between the steady-state currents measured in the presence and absence of substrates were considered as the substrate-induced currents. To investigate the current-membrane potential (I—V) relationship, step changes in membrane potential were applied, each for a duration of 100 ms in 20-mV increments. The kinetic parameter K0.5 (i.e. the substrate concentration necessary for the induction of half-maxima) current) was calculated by fitting the values of the substrate-induced currents to Michaelis-Menten equation. The Na^+-activation kinetics was analyzed by measuring the substrate-specific currents in the presence of increasing concentrations of Na^+. The data were analyzed by the Hill equation to determine the Hill coefficient (h; the number of Na^+ ions involved in the activation process). The kinetic parameters were determined using the computer program Sigma Plot, version 6.0 (SPSS, Inc., Chicago, Ill.). Electrophysiological measurements of substrate-induced currents were repeated at least four times with separate oocytes. The data are presented as means±S.E. of these replicates.
The charge-to substrate transfer ratio was determined for propionate in four different oocytes as described previously (Wang, H., et al. (2000) Am. J. Physiol. 278:C1019-C1030 12. Inoue, K., Fei, Y. J., Zhuang, L., Gopal, E., Miyauchi, S., and Ganapathy, V. (2004) Biochem. J. 378:949-957). The oocytes were perfused with 25 μM propionate (unlabeled plus radiolabeled propionate), and inward currents were monitored over a period of 8-10 min. At the end of the experiment, the amount of propionate transported into the oocytes was calculated by measuring the radioactivity associated with the oocytes. The area within the curve describing the relationship between the time and inward current was integrated to calculate the charge transferred into the oocyte during incubation with propionate. The values for substrate transfer and charge transfer were used to determine the charge to substrate transfer ratio.

[4] = test system: MCF7 cells transfected with SMCT1 cDNA; test: Colony formation assay in MCF7 cells transfected with SMCT1 cDNA; format: cell-based, human; conditions: SMCT1-expressing MCF7 cells; for IC50: two weeks
human SLC5A8 [5] = target: T2, human SLC5A8; test: Uptake of radiolabeled short-chain fatty acids in Xenopus oocytes injected with SLC5A8 cRNA; format: cell-based; parameters: Uptake, uninjected oocytes / Uptake, cRNA-injected oocytes: unit not given here; conditions: 1 h incubation
Description: as §1, §2
Uptake of short-chain fatty acids in uninjected oocytes and in oocytes injected with SLC5A8 cRNA was measured with 1 h incubation. Concentration of substrates (labeled plus unlabeled) varied in the range of 50-500 μM depending on the specific radioactivity of the substrates. Eight oocytes were used for each uptake measurement. Data represent means±SE.

CCCC(=O)OC[C@H](N)C(=O)O [O-butyryl-L-serine, O-Butyryl-L-serine]
IC50 (rat ATB^0,+ [1]): 118 ± 8 µM | Kt of ATB0,+-mediated glycine transport in the presence of inhibitor (rat ATB^0,+ [1]; 5 mM inhibitor, HRPE cells): 102 ± 17 µM | Vmax of ATB0,+-mediated glycine transport in the presence of inhibitor (rat ATB^0,+ [1]; 5 mM inhibitor, HRPE cells): 47 ± 5 nmol/10^6 cells/30 minutes | Inhibition of ATB0,+-mediated glycine transport (in words) (rat ATB^0,+ [1]; HRPE cells): inhibited glycine transport significantly | Hill coefficient for Na+ (rat ATB^0,+ [2]; 2 mM substrate, Cl- 100 mM): 1.74±0.23 | K0.5 for Na+ (rat ATB^0,+ [2]; 2 mM substrate, Cl- 100 mM): 5.02 ± 0.25 mM | Hill coefficient for Cl- (rat ATB^0,+ [2]; 2 mM substrate, Na+ 100 mM): 1.33±0.02 | K0.5 for Cl- (rat ATB^0,+ [2]; 2 mM substrate, Na+ 100 mM): 6.28 ± 0.33 mM | Inward currents induced in ATB0,+-expressing oocytes (in words) (rat ATB^0,+ [2]; voltage clamp): induced marked inward currents

CCCCCCCC(=O)O [octanoate]
Relative magnitude of substrate-induced currents (human SLC5A8 [3]): lowest

CCCC(=O)O [butyrate]
IC50 ([4]; Homo sapiens, 336 h): 37 ± 5 µM

CCC(=O)O [propionate]
Inhibition of ATB0,+-mediated glycine transport (in words) (rat ATB^0,+ [1]; HRPE cells): did not inhibit glycine transport | Inward currents induced in ATB0,+-expressing oocytes (in words) (rat ATB^0,+ [2]; voltage clamp): did not induce detectable current | Fold increase of uptake (cRNA-injected over uninjected) (human SLC5A8 [5]): 15.9 fold | Uptake, cRNA-injected oocytes (human SLC5A8 [5]; SLC5A8 cRNA-injected oocytes): 0.255 ± 0.014 | Uptake, uninjected oocytes (human SLC5A8 [5]; uninjected control oocytes): 0.016 ± 0.001 | Charge-to-substrate transfer ratio (human SLC5A8 [3]; 25 μM substrate, four oocytes): 3.1±0.1 | Hill coefficient (h) for Na+ (human SLC5A8 [3]; 5 mM substrate): 2.0±0.1 | Relative magnitude of substrate-induced currents (human SLC5A8 [3]): maximal | K0.5 for SLC5A8 (human SLC5A8 [3]; Na+ 100 mM, four oocytes): 127 ± 14 µM | Effect on cell growth / apoptosis [4]: induce apoptosis | IC50 [4]: 205 ± 40 µM

CC(=O)OC[C@H](N)C(=O)O [O-acetyl-L-serine]
Kt of ATB0,+-mediated glycine transport in the presence of inhibitor (rat ATB^0,+ [1]; 5 mM inhibitor, HRPE cells): 133 ± 36 µM | Vmax of ATB0,+-mediated glycine transport in the presence of inhibitor (rat ATB^0,+ [1]; 5 mM inhibitor, HRPE cells): 46 ± 9 nmol/10^6 cells/30 minutes | inhibition at 5000 µM (rat ATB^0,+ [1]; 5 mM inhibitor, HRPE cells, read-out: Inhibition of ATB0,+-mediated glycine transport): ~90% | IC50 (rat ATB^0,+ [1]; glycine 10 μM, HRPE cells, read-out: IC50 for inhibition of ATB0,+-mediated glycine transport): 423 ± 72 µM | Inward currents induced in ATB0,+-expressing oocytes (in words) (rat ATB^0,+ [2]; voltage clamp): induced marked inward currents | K0.5 (substrate concentration for half-maximal current) (rat ATB^0,+ [2]; ATB0,+-expressing oocytes, voltage clamp): 369 ± 25 µM

N[C@@H](CO)C(=O)O [L-serine]
Inward currents induced in ATB0,+-expressing oocytes (in words) (rat ATB^0,+ [2]; voltage clamp): induced marked inward currents

CC(=O)C(=O)O [pyruvate]
IC50 ([4]; Homo sapiens, 336 h): 72 ± 12 µM
